In brackets after ≈: the same amount, converted by molar mass.
Assays:
[1] = target: T1, Sodium- and chloride-dependent glycine transporter 1 (Homo sapiens, UniProt P48067); experiment: Inhibition of human GlyT1
T1 sequence (P48067 whole entry): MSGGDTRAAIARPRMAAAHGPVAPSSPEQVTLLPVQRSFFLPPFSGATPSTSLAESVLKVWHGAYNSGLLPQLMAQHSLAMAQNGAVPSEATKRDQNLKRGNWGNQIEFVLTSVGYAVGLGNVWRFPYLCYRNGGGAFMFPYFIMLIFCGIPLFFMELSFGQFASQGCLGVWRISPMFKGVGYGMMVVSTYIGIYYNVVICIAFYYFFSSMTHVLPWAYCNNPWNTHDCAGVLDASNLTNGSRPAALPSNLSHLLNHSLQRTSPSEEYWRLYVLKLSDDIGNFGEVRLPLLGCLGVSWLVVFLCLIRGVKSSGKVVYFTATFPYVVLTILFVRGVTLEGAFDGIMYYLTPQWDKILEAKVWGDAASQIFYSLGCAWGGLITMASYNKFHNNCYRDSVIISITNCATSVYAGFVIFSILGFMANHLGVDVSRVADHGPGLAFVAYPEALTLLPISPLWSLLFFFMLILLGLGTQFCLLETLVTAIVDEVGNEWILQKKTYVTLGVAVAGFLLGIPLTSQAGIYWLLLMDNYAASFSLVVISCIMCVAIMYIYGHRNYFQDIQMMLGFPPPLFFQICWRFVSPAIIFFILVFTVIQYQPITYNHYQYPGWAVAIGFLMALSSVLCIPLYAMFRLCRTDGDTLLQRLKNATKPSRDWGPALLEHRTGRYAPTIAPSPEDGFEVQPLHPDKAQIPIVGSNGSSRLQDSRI

[2] = target: T2, Sodium- and chloride-dependent taurine transporter (Homo sapiens, UniProt P31641); experiment: Inhibition of human TauT
T2 sequence (P31641 whole entry): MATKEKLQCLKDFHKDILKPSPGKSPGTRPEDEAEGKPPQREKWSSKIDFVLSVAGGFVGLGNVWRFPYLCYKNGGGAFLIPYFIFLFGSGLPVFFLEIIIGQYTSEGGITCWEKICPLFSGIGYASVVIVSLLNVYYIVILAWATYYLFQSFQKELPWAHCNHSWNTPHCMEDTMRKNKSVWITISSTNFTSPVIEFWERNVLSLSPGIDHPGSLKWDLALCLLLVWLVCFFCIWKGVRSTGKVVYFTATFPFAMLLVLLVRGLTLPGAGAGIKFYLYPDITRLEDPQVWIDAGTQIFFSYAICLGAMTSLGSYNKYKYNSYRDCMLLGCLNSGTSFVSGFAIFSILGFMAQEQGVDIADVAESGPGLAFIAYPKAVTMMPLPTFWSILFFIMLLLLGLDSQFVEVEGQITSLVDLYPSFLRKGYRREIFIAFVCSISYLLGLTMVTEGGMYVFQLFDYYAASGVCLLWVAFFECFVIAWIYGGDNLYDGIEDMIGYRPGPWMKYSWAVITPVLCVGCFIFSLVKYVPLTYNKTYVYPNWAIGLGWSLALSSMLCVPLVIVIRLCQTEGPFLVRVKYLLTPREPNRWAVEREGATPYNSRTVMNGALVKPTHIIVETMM

[3] = target: T3, Sodium- and chloride-dependent glycine transporter 2 (Homo sapiens, UniProt Q9Y345); experiment: Inhibition of human GlyT2
T3 sequence (Q9Y345 whole entry): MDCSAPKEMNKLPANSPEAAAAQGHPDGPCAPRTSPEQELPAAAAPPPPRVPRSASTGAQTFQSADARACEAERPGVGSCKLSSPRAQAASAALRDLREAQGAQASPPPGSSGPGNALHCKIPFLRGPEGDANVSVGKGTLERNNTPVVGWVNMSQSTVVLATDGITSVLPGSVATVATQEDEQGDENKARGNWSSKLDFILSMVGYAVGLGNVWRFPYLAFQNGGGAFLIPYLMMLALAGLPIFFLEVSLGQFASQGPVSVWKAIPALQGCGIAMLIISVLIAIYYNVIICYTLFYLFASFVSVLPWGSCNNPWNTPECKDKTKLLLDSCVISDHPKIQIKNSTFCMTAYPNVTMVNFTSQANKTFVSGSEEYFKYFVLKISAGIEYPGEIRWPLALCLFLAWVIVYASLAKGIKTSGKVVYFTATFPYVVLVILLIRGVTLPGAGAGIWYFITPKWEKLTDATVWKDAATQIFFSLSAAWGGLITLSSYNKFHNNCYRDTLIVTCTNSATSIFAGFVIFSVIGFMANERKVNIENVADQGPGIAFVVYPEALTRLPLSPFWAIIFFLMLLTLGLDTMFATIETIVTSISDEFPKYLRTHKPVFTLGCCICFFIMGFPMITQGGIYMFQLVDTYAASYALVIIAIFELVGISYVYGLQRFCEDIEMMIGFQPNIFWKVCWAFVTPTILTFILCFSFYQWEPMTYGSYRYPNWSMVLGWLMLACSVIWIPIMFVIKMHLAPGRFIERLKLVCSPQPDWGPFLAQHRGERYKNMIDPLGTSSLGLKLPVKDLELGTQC

[4] = Aqueous solubility of the compound; format: physicochemical
[5] = test system: Caco-2; experiment: Ratio of permeability from basolateral to apical over apical to basolateral side of Caco-2 cell expressing human p-glycoprotein; format: ADME, cell-based
[6] = target: Cytochrome P450 2C9 (Homo sapiens, UniProt P11712); experiment: Inhibition of CYP2C9; format: ADME
[7] = Partition coefficient, log P of the compound; format: physicochemical; details: octanol/water
[8] = Clearance in rat; format: ADME, organism-based; details: in vivo
[9] = Apparent permeability in Caco-2 cells; format: ADME, cell-based; details: human
[10] = target: Cytochrome P450 3A4 (Homo sapiens, UniProt P08684); experiment: Inhibition of CYP3A4; format: ADME
[11] = Half life in rat; format: ADME, organism-based; details: in vivo
[12] = test system: Caco-2; experiment: Ratio of permeability from basolateral to apical over apical to basolateral side of Caco-2 cell expressing mouse p-glycoprotein; format: ADME, cell-based; details: human
[13] = target: Cytochrome P450 2D6 (Homo sapiens, UniProt P10635); experiment: Inhibition of CYP2D6; format: ADME
Chain of Cytochrome P450 2D6 (P10635 whole entry): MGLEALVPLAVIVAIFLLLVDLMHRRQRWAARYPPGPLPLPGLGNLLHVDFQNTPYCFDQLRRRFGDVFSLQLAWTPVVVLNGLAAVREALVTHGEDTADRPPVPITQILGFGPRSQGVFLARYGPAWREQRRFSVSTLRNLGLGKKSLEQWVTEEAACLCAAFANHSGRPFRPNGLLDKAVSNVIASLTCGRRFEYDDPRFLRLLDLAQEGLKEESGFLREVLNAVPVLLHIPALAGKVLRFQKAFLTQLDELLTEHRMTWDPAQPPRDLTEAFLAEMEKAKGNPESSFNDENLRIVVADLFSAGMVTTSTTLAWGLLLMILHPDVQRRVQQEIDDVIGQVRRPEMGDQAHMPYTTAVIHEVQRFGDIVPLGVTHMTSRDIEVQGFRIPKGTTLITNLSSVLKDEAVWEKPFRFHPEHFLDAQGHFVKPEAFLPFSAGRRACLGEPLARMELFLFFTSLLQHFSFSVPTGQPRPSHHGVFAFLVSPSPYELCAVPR

Chain of Cytochrome P450 2C9 (P11712 whole entry): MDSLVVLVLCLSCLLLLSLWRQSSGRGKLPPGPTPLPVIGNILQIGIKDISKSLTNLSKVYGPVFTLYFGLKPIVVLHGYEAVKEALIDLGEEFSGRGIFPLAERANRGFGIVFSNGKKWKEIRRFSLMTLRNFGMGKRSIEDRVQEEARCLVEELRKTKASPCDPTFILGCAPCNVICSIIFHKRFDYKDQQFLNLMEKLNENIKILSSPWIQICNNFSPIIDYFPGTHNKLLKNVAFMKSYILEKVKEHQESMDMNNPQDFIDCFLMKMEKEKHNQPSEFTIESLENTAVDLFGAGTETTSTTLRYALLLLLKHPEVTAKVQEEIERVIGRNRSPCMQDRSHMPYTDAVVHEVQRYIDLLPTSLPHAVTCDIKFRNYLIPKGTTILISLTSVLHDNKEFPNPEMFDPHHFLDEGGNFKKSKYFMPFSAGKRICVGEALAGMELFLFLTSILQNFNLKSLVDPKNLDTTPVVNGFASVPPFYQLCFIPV
Chain of Cytochrome P450 3A4 (P08684 whole entry): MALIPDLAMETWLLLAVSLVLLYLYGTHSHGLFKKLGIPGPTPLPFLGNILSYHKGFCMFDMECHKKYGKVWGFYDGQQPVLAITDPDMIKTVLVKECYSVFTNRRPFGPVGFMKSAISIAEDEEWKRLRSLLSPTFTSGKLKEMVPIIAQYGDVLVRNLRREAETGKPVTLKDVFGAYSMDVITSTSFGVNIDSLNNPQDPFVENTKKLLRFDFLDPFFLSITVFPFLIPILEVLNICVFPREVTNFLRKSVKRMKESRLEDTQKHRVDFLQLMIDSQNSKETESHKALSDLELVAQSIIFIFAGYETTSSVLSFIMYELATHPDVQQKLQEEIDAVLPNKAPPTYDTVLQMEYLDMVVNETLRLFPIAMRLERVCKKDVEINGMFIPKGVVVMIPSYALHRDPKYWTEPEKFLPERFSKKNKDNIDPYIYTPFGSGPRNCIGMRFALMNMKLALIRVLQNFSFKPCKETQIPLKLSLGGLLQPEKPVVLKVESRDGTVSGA

| SMILES | IC50 [1] [µM] | IC50 [2] [µM] | IC50 [3] [µM] | solubility [4] [µg/mL] | Ratio [5] | Activity [6] | logP [7] | clearance [8] [mL/min/kg] | Papp [9] [×10⁻⁶ cm/s] | Activity [10] | half-life [11] [min] | Ratio [12] | Activity [13] |
| --- | --- | --- | --- | --- | --- | --- | --- | --- | --- | --- | --- | --- | --- |
| CCCS(=O)(=O)N1CCC(CNC(=O)c2ccc(Cl)cc2Cl)(C(=O)N2CCC(N(C)C)C2)CC1 (centres undefined) | 0.544 | > 30 | > 30 |  |  |  |  |  |  |  |  |  |  |
| CCCS(=O)(=O)N1CCC(CNC(=O)c2ccc(Cl)cc2Cl)(C(=O)C2CC2)CC1 | 0.472 | > 30 | > 30 |  |  |  |  |  |  |  |  |  |  |
| CCCS(=O)(=O)N1CCC(CNC(=O)c2ccc(Cl)cc2Cl)(C(=O)NCC)CC1 | 0.517 | > 30 | > 30 |  |  |  |  |  |  |  |  |  |  |
| CCCS(=O)(=O)N1CCC(CNC(=O)c2ccc(C(F)(F)F)cc2F)(C(=O)N2CCOCC2)CC1 | 0.0428 | > 30 | > 30 | 10000 (≈ 19.1 mM) | 10.6 | Not Active | < 1.4 | 18 | > 22 | Not Active | 18 | 8.9 | Not Active |
| CCCS(=O)(=O)N1CCC(CNC(=O)C2CC2)(C(=O)N2CCOCC2)CC1 | > 5 | > 30 | > 30 | 10000 (≈ 24.9 mM) | 10.6 | Not Active | < 1.4 | 18 | > 22 | Not Active | 18 | 8.9 | Not Active |
| CCCS(=O)(=O)N1CCC(CNC(=O)CC)(C(=O)N2CCOCC2)CC1 | > 5 | > 30 | > 30 | 10000 (≈ 25.7 mM) | 10.6 | Not Active | < 1.4 | 18 | > 22 | Not Active | 18 | 8.9 | Not Active |
| CCCS(=O)(=O)N1CCC(CNC(=O)c2ccc(F)cc2C(F)(F)F)(C(=O)N2CCOCC2)CC1 | 0.0678 | > 30 | > 30 | 10000 (≈ 19.1 mM) | 10.6 | Not Active | < 1.4 | 18 | > 22 | Not Active | 18 | 8.9 | Not Active |
| CCCS(=O)(=O)N1CCC(CNC(=O)c2ccccc2OC(F)(F)F)(C(=O)N2CCOCC2)CC1 | 0.0884 | > 30 | > 30 | 10000 (≈ 19.2 mM) | 10.6 | Not Active | < 1.4 | 18 | > 22 | Not Active | 18 | 8.9 | Not Active |
| CCCS(=O)(=O)N1CCC(C(=O)N2CCOCC2)([C@H](C)NC(=O)c2ccc(Cl)cc2Cl)CC1 | > 5 |  |  |  |  |  |  |  |  |  |  |  |  |
| CCCS(=O)(=O)N1CCC(C(=O)N2CCOCC2)([C@@H](C)NC(=O)c2ccc(Cl)cc2Cl)CC1 | > 5 |  |  |  |  |  |  |  |  |  |  |  |  |
| CCCS(=O)(=O)N1CCC(CNC(=O)c2ccc(Cl)cc2Cl)(C(=O)N2CCN(C)CC2)CC1 | > 5 | > 30 | > 30 |  |  |  |  |  |  |  |  |  |  |
| CCCS(=O)(=O)N1CCC(CNC(=O)c2ccc(Cl)cc2Cl)(C(=O)N(C)C)CC1 | 0.181 | > 30 | > 30 |  |  |  |  |  |  |  |  |  |  |
| CCCS(=O)(=O)N1CCC(CNC(=O)c2c(F)cccc2F)(C(=O)N2CCOCC2)CC1 | 0.131 | > 30 | > 30 | 10000 (≈ 21.1 mM) | 10.6 | Not Active | < 1.4 | 18 | > 22 | Not Active | 18 | 8.9 | Not Active |
| CCCS(=O)(=O)N1CCC(CNC(=O)c2ccccc2)(C(=O)N2CCOCC2)CC1 | 0.264 | > 30 | > 30 | 10000 (≈ 22.9 mM) | 10.6 | Not Active | < 1.4 | 18 | > 22 | Not Active | 18 | 8.9 | Not Active |
| CCCS(=O)(=O)N1CCC(CNC(=O)c2ccc(Cl)cc2Cl)(C(=O)NCC2(C)COC2)CC1 | 0.069 | > 30 | > 30 |  |  |  |  |  |  |  |  |  |  |
| CCCS(=O)(=O)N1CCC(CNC(=O)c2ccc(Cl)cc2Cl)(C(=O)N2CC(N)C2)CC1 | 0.109 | > 30 | > 30 |  |  |  |  |  |  |  |  |  |  |

Reference: ChEMBL document CHEMBL1145293, “Synthesis and SAR of GlyT1 inhibitors derived from a series of N-((4-(morpholine-4-carbonyl)-1-(propylsulfonyl)piperidin-4-yl)methyl)benzamides” (Bioorg Med Chem Lett, 2006)
